# From patent publication US7550257B2, “Process for identifying substances which modulate the activity of hyperpolarization-activated cation channels” (Sanofi-Aventis Deutschland GmbH, priority 2000, dated 2009)
# Key:
# [1] = biological target: T1, muHCN2 (Mus musculus, UniProt O88703); test: Patch-clamp (electrophysiological) examination in the same cells; assay type: cell-based, murine; conditions: determined electrophysiologically in the same cells
# T1 construct: expressed in transfected cells
# T1 sequence (O88703 1-863): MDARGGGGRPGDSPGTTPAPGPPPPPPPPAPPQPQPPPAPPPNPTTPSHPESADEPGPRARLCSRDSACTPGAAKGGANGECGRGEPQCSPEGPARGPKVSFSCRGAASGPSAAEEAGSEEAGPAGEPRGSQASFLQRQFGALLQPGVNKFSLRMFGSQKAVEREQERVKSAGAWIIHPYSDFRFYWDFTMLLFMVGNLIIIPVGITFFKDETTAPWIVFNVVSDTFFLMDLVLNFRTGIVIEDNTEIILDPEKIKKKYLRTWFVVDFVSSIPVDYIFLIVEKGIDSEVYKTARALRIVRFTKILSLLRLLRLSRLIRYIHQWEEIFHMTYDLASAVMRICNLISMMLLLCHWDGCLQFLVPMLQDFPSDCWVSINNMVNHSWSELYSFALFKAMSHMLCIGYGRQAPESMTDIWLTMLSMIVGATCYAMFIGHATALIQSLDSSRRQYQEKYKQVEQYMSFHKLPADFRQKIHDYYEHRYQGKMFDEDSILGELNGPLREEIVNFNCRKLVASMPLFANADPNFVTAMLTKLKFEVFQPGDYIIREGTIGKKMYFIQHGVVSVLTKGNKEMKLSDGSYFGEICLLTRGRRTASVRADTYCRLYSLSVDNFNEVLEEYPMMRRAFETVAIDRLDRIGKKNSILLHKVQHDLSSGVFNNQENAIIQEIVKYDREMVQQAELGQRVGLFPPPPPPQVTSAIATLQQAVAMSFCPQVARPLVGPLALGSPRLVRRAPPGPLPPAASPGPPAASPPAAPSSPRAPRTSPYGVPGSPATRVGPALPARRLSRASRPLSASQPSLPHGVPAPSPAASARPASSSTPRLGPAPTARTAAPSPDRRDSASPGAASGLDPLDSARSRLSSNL
# Text: Using the patch-clamp method, the cells with detectable mRNA expression were examined electrophysiologically, in the whole-cell configuration, for functional expression of muHCN2. This method is described in detail in Hamill et al (1981), which is incorporated herein by reference. The cells were clamped to a holding potential of −40 mV. Starting with this holding potential, the ion channels were activated by a voltage change to […] for a period of one second. The current amplitude was determined the end of this pulse. Among the transfected HEK cells, some were found having currents of about 1 nA; however, owing to interfering endogenous currents, it was not possible to construct an assay for these cells in the FLIPR.
# Electrophysiologically, currents of up to 11 nA were measured. These cells were used for constructing an FLIPR assay for HCN2.
# Using the transfected HCN cells, the effect of various concentrations of the substance zatebradine, which is known as an If blocker, were examined. The inhibition by zatebradine was calculated from the relative change in fluorescence from the time 60 seconds. For each concentration of the inhibitor, the mean of in each case 6 wells of the microtiter plate was determined.
# [2] = biological target: T1, muHCN2; test: FLIPR membrane potential assay (DiBac4(3)) with transfected HCN cells; assay type: cell-based, murine; conditions: muHCN2-transfected CHO cells, relative change in fluorescence from the time 60 seconds, mean of 6 wells per concentration, read-out: IC50 of zatebradine (inhibition calculated from relative change in fluorescence)
# Procedure: The cells seeded on the microtiter plates are washed in an isoosmolar buffer in which NaCl has been replaced by choline chloride. However, this wash buffer also contains 5 mM KCl, since extracellular K^+ is important for HCN activation (Biel et al. 1999). This wash buffer, which serves to effect hyperpolarization of the HCN cells, also contains 5 μM DiBac4(3) for measuring changes in the membrane potential in the FLIPR. By removing the extracellular Na^+, the cells are hyperpolarized, i.e. the HCN is activated. However, the HCN is not capable of causing depolarization of the cells, since the required concentration gradient of the ions Na^+ or K^+ transported by HCN is missing. […] This is reflected in the fact that the initial fluorescence measured for HCN cells in the FLIPR at 10 μM forskolin is lower than that without forskolin, whereas there is no difference in nontransfected cells.
# Since DiBac4(3) fluorescence may be sensitive to temperature variations, the measurement is, after an incubation at 37° C. for 30 minutes, carried out as quickly as possible—cooling of the dye solution may affect the measured results. […]
# In the FLIPR, Na^+ is added to the cells so that the activated HCN (after a few seconds, in which there are mixing effects) causes, from about 15 seconds after the addition of Na^+, depolarization of the cells, which becomes visible by an increase in fluorescence. […]
smiles,measurement,setting,value
"COc1ccc(CCN(C)CCCN2CCc3cc(OC)c(OC)cc3CC2=O)cc1OC [zatebradine, 3-[3-[[2-(3,4-dimethoxyphenyl)ethyl]methylamino]propyl]-1,3,4,5-tetrahydro-7,8-dimethoxy-2H-3-benzazepin-2-one]",IC50,[1],31 µM
same,IC50,[2],26 µM
